Tests used:
[1] = system: mouse models induced to have choroidal neovascularization (CNV) by laser irradiation (CNV models); assay: laser-induced choroidal neovascularization (CNV) mouse model, area of CNV; assay type: in vivo; details: mice; 3 mg/kg or 10 mg/kg edaravone into the caudal vein immediately after laser irradiation; choroidal flat mount 14 days after irradiation; FIG. 1A, 1B
Procedure: In such CNV models, macrophages migrate as a result of provocation of inflammation by laser irradiation. Consequently, VEGF is generated, and new blood vessels are formed.
A 10-fold dilution of a mixed anesthetic solution of ketamine and xylazine (7:1) was administered at a dose of 10 mL/kg into the femoral muscle of each mouse, and one eye was then irradiated with laser at 6 sites with equal intervals on the circumference of discus nervi optici (wave length: 647 nm, spot size: 50 μm, irradiation time: 100 msec, and laser output: 120 mW). Immediately after the laser irradiation, 3 mg/kg edaravone, 10 mg/kg edaravone, or 10 mL/kg normal saline was administered into the caudal vein of each mouse. Thereafter, fundus photography was carried out using a fundus camera. Fourteen days after the laser irradiation, a 10-fold dilution of Fluorescite (registered trademark) Injection Solution No. 1 was administered at a dose of 0.5 mL/kg into the caudal vein under the same anesthesia as described above, and fluorescein fundus photography was then carried out using a fundus camera. […] The expression of CNV was evaluated by choroidal flat mount. Using a confocal laser scanning microscope, the CNV was photographed, and the area of CNV was then measured. […]

[2] = system: human retinal microvascular endothelial cells (HRMECs); assay: VEGF-induced cell growth of HRMECs (cell counting kit-8); assay type: cell-based; details: edaravone 1, 10 or 100 μM added 1 hour before VEGF 10 ng/mL, 24 hours, control without VEGF = 100%, FIG. 2
Procedure: Using CSC Complete Recombinant Medium, human retinal microvascular endothelial cells (HRMECs) were plated at a cell density of 2×10^3 cells/well on a 96-well plate. Twenty-four hours after plating, the medium was exchanged with a CSC medium containing 10% fetal bovine serum (FBS). Then, twenty-four hours after the medium exchange, edaravone was added in a final concentration of 1, 10 or 100 μM to an edaravone addition group. One hour after the addition of edaravone, to a vascular endothelial growth factor (VEGF) addition group, VEGF was added in a final concentration of 10 ng/mL. Twenty-four hours after the addition of VEGF, in order to remove the reagent and VEGF, the medium was exchanged again with a CSC medium containing 10% FBS. After completion of the medium exchange, cell counting kit-8 was added, and the absorbance at 450 nm was then measured (defined as “measurement value 1”). Three hours after the measurement of the absorbance, the second absorbance measurement was carried out (defined as “measurement value 2”). The measurement value 1 was subtracted from the measurement value 2, and the obtained value was then corrected, using a control group, to which VEGF had not been added, as 100%. The thus obtained value was defined as a growth rate. The cells were cultured under conditions of 37° C. and 5% CO2, except for the operations.

In the case of `CC1=NN(c2ccccc2)C(=O)C1` [edaravone, 3-methyl-1-phenyl-2-pyrazolin-5-one], the “CNV formation (area of CNV)” value [1] is reported as “inhibited” and the “cell growth induced by VEGF (growth rate)” value [2] is reported as “suppressed”.

— patent US20170273949A1, “AGENT FOR PREVENTING AND/OR TREATING OPHTHALMOLOGIC DISEASES” (MITSUBISHI TANABE PHARMA CORPORATION, priority 2014, published 2017)
